According to publication PMC10083169, “A cationic motif upstream Engrailed2 homeodomain controls cell internalization through selective interaction with heparan sulfates” (Nature Communications, 2023):

Columns and labels:
ExtHD = molecular target: T1, ExtHD (Gallus gallus, UniProt Q05917); test: ITC, titration with POPG LUVs; assay type: binding; settings: read-out: Kd^apparent
T1 construct: gene EN2; homeodomain plus 17-residue basic N-terminal extension (183-259); E. coli SE1, His6-Cherry fusion removed by PreScission, GPAS left at N-terminus (GPCAS with biotin-PEG2-maleimide for biotinylated form)
T1 sequence (Q05917 183-259): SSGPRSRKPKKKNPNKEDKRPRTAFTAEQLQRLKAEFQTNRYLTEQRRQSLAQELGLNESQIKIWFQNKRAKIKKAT
From the text: ITC, titration with POPG LUVs on ExtHD

HD = molecular target: T2, HD (Gallus gallus, UniProt Q05917); test: ITC, titration with POPG LUVs; assay type: binding; settings: read-out: Kd^apparent
T2 construct: gene EN2; homeodomain alone (200-259); E. coli SE1, His6-Cherry fusion removed by PreScission, GPAS left at N-terminus
T2 sequence (Q05917 200-259): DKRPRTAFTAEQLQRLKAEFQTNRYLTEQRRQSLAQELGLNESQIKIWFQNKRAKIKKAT
From the text: ITC, titration with POPG LUVs on HD

Work on `CCCCCCCC/C=C\CCCCCCCC(=O)O[C@H](COC(=O)CCCCCCCCCCCCCCC)COP(=O)(O)OCC(O)CO` (mixture of isomers) [POPG, 1-palmitoyl-2-oleoyl-sn-glycero-3-phospho-(1’-rac-glycerol)] yielded a Kd (ExtHD) of 6.8 ± 2.3 µM and a Kd (HD) of 7.5 ± 2.5 µM.
